Earlier results as cited in PMC7845544 (Frontiers in Pharmacology, 2021).

Experiments:
[1] = parameters: method as in Ghobadi et al., 2009; details: ref Ghobadi et al., 2009; cited from earlier work
women = system: women; parameters: method as in Gerrits et al., 2016; details: up to 40 mg/day; ref Gerrits et al., 2016; cited from earlier work
monkeys = system: monkeys; parameters: method as in Gerrits et al., 2016; details: ref Gerrits et al., 2016, cited from earlier work
TSH receptor = target: TSH receptor; parameters: method as in Gerrits et al., 2016; details: ref Gerrits et al., 2016, cited from earlier work
human FSHR = system: human FSHR; parameters: method as in Gerrits et al., 2016; details: ref Gerrits et al., 2016; read-out: human FSHR-AA EC50; cited from earlier work

| Structure (SMILES) | elimination from blood [1] [h] | follicular growth in human phase one study (women) | dose for thyroid follicular cell hypertrophy (monkeys) [mg/kg] | fold separation between ovarian and thyroid stimulation (monkeys) [fold] | dose required for folliculogenesis (monkeys; twice daily) [mg/kg] | EC50 (TSH receptor; read-out: TSH receptor EC50) [µM] | TSHR/FSHR (TSH receptor) | EC50 (human FSHR) [µM] |
| --- | --- | --- | --- | --- | --- | --- | --- | --- |
| CCN(CC)CCOc1ccc(C(=C(Cl)c2ccccc2)c2ccccc2)cc1 [clomiphene] | ≥ 72 | – | – | – | – | – | – | – |
| COc1cc2c(cc1CC(C)C)-c1c(-c3cccs3)cc(C(=O)N(C)C(C)(C)C)n1CC2 [MK-8389] | – | failed to induce follicular growth | 23 | 10 | 2.25 | 0.34 | 81 | 0.0042 |
